Measurements reported in patent publication US4803208A, “Opiate agonists and antagonists” (Sloan-Kettering Institute For Cancer Research, priority 1985, dated 1989).
Where “and” joins values, the source holds several entries; their conditions need not be identical. Equal entries are not always repeated.

How the values were obtained:
[1] = currently available agents; cited from earlier work
prolactin release [2] = conditions: cited from earlier work
prolactin release [3] = assay: Prolactin release in vivo; conditions: in vivo
rats [4] = conditions: cited from earlier work
rats [5] = format: in vivo, rat; conditions: 50 mg/kg intravenously
Protocol: They were then food deprived for 24 hours but allowed free access to water. Five rats received saline, four received naloxone and three naloxazone. […] The animals were then given free access to food for 1 hour and their weight gain noted. Thus, eating was measured 24 hours after the administration of the drugs and after 24 hours of food deprivation.

growth hormone release [6] = conditions: cited from earlier work
growth hormone release [7] = assay: Growth hormone release in vivo; conditions: in vivo

SMILES: C=CCN1CC[C@]23c4c5ccc(O)c4O[C@H]2C(=O)CC[C@@]3(O)[C@H]1C5 [Naloxone, naloxone]
- half-life (in words) [1]: short half-life
- effect on basal levels of prolactin, naloxone (in words) (prolactin release [2]): lowering of the basal levels of prolactin and growth hormone
- effect on prolactin release (in words) (prolactin release [3]): inhibits morphine's release of both hormones
- suppression of eating behavior (known) (rats [4]): effectively suppress eating behavior in rats
- effect on feeding (in words) (rats [5]): inability of naloxone to effect feeding behavior
- Amounts eaten, individual animals (rats [5]; 1 hour free access to food, 24 hours after drug): 4.1 grams and 5.3 grams and 4.4 grams and 3.7 grams
- Amounts eaten, Mean ± SEM (rats [5]; 1 hour free access to food, 24 hours after drug, saline 4.78 ± 0.42, significant at the p 0.05 level (ANOVA)): 4.38 ± 0.34 grams
- effect on basal levels of growth hormone, naloxone (in words) (growth hormone release [6]): lowering of the basal levels of prolactin and growth hormone
- effect on growth hormone release (in words) (growth hormone release [7]): inhibits morphine's release of both hormones
